This note sets out measurements from patent US6653306B1, “Epoxy-steroidal aldosterone antagonist and angiotensin II antagonist combination therapy” (G.D. Searle & Co., priority 1995, dated 2003).

In test [1] the target is angiotensin II AT1 receptor. The experiment in a line: Assay A: Angiotensin II binding activity (125I-AII displacement, rat uterine membrane preparation).
The next test relates to rabbit aortic rings. The experiment in a line: Assay B: In vitro vascular smooth muscle response for AII (antagonist activity, pA2). Type of test: cell-based. The conditions noted are these: in vitro vascular smooth muscle response, two values per cell separated by / are separate determinations; for Kb: Oryctolagus cuniculus, read-out: Assay B pA2 (converted). In outline:
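Endothelium-denuded thoracic aortic rings from male New Zealand white rabbits, in oxygenated Krebs at 37 °C under ~1 g tension; isometric contraction to AII (3×10^−10 to 1×10^−5 M).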

A further test concerns pressor response to AII. The experiment in a line: Assay C: In vivo intragastric pressor assay response for AII antagonists. The arrangement: species or system rat. The conditions noted are these: intragastric, or intraduodenal for examples listed; for Assay C Inhibition: dose cell empty (dose not given). The gist of the method:
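Conscious male Sprague-Dawley rats with arterial and venous catheters received 30 ng/kg i.v. angiotensin II boluses before and at 30–180 min after gavage of compound (standard 3 mg/kg in 0.5% methylcellulose). Pressor rise in mmHg measured; percent inhibition calculated versus averaged control response at each time point.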

Where [2] appears, read: Rattus norvegicus, dose 3 mg/kg.

Each structure is given as a SMILES string. “And” between values parts separate entries of the source, which are not always exact repeats. Equal values may be shown once. Some results are limits rather than exact numbers.

One may read the IC50 as the midpoint of a concentration-inhibition curve. A high value points to weaker potency. With `CCCCc1nn(CC(=O)OC(C)(C)C)c(=O)n1Cc1ccc(-c2ccccc2-c2nn[nH]n2)cc1` [Compound 84], in test [1], the IC50 is 16 nM. Further, the Kb in the test on rabbit aortic rings is 79.4 nM. Besides, the “Assay C Inhibition” value in the test on pressor response to AII turned out to be 20%.

For orientation: inhibition means the share of the control response that was lost under treatment. The compound `CCCn1nc(C(F)(F)CCC)nc1Cc1ccc(-c2ccccc2-c2nnn[nH]2)nc1` [Compound 169] showed an IC50 in test [1] of 150 nM. For the same compound, in the test on rabbit aortic rings, the Kb was 16.6 nM. This compound also gave an inhibition at 3 mg/kg in the test with pressor response to AII (setting [2]) of 15%. The “Assay C Duration” value in the test on pressor response to AII (dose 3 mg/kg) amounted to 180 min.

Turning to `CCCCc1cn(CCc2cccs2)c(=O)n1Cc1ccc(-c2ccccc2-c2nnn[nH]2)cc1` [Compound 134], the IC50 in test [1] amounted to 22 nM. Further, in the test on rabbit aortic rings, the Kb is 0.501 nM. Also, testing at 3 mg/kg with pressor response to AII (setting [2]) gave an inhibition of 35%. Moreover, in the test on pressor response to AII (dose 3 mg/kg), the “Assay C Duration” value was determined as 180 min.

For `CCCCn1nc(-c2ccccc2Cl)nc1Cc1ccc(-c2ccccc2-c2nnn[nH]2)nc1` [Compound 158], the IC50 in test [1] was determined as 54 nM. Also, the Kb in the test on rabbit aortic rings is 5.89 nM. The inhibition at 3 mg/kg in the test on pressor response to AII (setting [2]) is 30%. Also, the “Assay C Duration” value in the test with pressor response to AII (dose 3 mg/kg) was >180 min.

`CCCCc1nn(CC(OCC(=O)O)c2ccccc2)c(=O)n1Cc1ccc(-c2ccccc2-c2nn[nH]n2)cc1` (stereo not shown) [Compound 91] gave a concentration for half-maximal inhibition (IC50) in test [1] of 30 nM. Besides, in the test on rabbit aortic rings, the Kb is 2.51 nM. In addition, the “Assay C Inhibition” value in the test with pressor response to AII is 40%.

As for `CCCCc1nc2cnncc2n1Cc1ccc(-c2ccccc2C(=O)O)cc1` [Compound 108], the IC50 in test [1] was 720 nM. Besides, the Kb with rabbit aortic rings is 5010 nM. The same compound returned an inhibition at 100 mg/kg in the test on pressor response to AII (Rattus norvegicus, dose 100 mg/kg) of 45%. The “Assay C Duration” value in the test on pressor response to AII (dose 100 mg/kg) amounted to 90 min.

Turning to `CCCCc1nn(CCCC)c(=O)n1Cc1ccc(-c2ccccc2C(=O)O)cc1` [Compound 78], in test [1], the IC50 came to 101 nM. For the same compound, the Kb with rabbit aortic rings was 100 nM. For the same compound, the “Assay C Inhibition” value in the test with pressor response to AII turned out to be 93%.

With `CCCCc1nc(CCc2ccccc2)nn1Cc1ccc(-c2ccccc2-c2nnn[nH]2)cc1` [Compound 26], the IC50 in test [1] came to 3.2 nM. Also, the Kb with rabbit aortic rings is 0.148 nM. The same compound returned an inhibition at 10 mg/kg in the test on pressor response to AII (Rattus norvegicus, dose 10 mg/kg) of 50%. The “Assay C Duration” value in the test on pressor response to AII (dose 10 mg/kg) was >180 min.

Take `CCCCc1nc(C(=O)N(C)C(C)(C)C)nn1Cc1ccc(-c2ccccc2-c2nnn[nH]2)nc1` [Compound 255]: in test [1], the IC50 was 12 nM. Besides, the Kb in the test with rabbit aortic rings was 24.5 nM. The same compound returned an inhibition at 3 mg/kg with pressor response to AII (setting [2]) of 20%. Also, in the test on pressor response to AII (dose 3 mg/kg), the “Assay C Duration” value was >180 min.

With `CCCCc1cn(-c2c(CC)cccc2CC)c(=O)n1Cc1ccc(-c2ccccc2-c2nnn[nH]2)cc1` [Compound 276], the IC50 in test [1] came out at 33 nM. Also, the “Assay B pA2” value in the test with rabbit aortic rings was 8.71 and 8.64. Moreover, in the test on pressor response to AII (setting [2]), the inhibition at 3 mg/kg is < 20%.

For the compound `CCCCc1nc(C(=O)CCC)nn1Cc1ccc(-c2ccccc2-c2nnn[nH]2)cc1` [Compound 30], in test [1], the IC50 came out at 22 nM. Further, the Kb with rabbit aortic rings is 18.6 nM. This compound also returned an inhibition at 30 mg/kg in the test with pressor response to AII (Rattus norvegicus, dose 30 mg/kg) of 50%. Also, the “Assay C Duration” value in the test with pressor response to AII (dose 30 mg/kg) was >180 min.
